Patent US9345706B2, “Benzoxazole kinase inhibitors and methods of use” (Intellikine LLC, priority 2008, dated 2016)

Tests used:
xenograft tumors = test: Tumor volume of xenograft tumors in female nude athymic mice; type: in vivo, mouse; conditions: U87-MG, A549, ZR-75-1, or 786-0 tumor cells
Experimental: For example, treatment with one or more compounds of the invention results in a reduction in the growth or tumor volume caused by engraftment of U87-MG, A549, ZR-75-1, or 786-0 tumor cells in nude mice. The compounds of the invention may be administered orally, subcutaneously, or intravenously, or any other compound administration methods provided herein. In some cases, the compounds are administered once a week, every other day, once a day, twice a day, three times a day, four times a day or more. In some cases, 0.01 mg/kg of compound is administered, 0.05 mg/kg, 0.1 mg/kg, 0.2 mg/kg, 0.4 mg/kg, 0.5 mg/kg, 1 mg/kg, 1.5 mg/kg, 2 mg/kg, 3 mg/kg, 4 mg/kg, 5 mg/kg, 7.5 mg/kg, 10 mg/kg, 100 mg/kg or more compound is administered at a time. In some cases, a significant reduction in tumor volume may be detected within 5, 10, 15, 20, 25, or 30 days of tumor engraftment.
Mice are inoculated subcutaneously in the right flank with 0.01 to 0.5 ml of tumor cells such as those listed above (approximately 1.0×10^5 to 1.0×10^8 cells/mouse). Five to 10 days following inoculation, tumors are measured using calipers and tumor weight is calculated, for example using the animal study management software, such as Study Director V.1.6.70 (Study Log). […] Body weights are recorded when the mice are pair-matched. […]

[1] = test system: HCT116 cells or SW620 cells; test: Cell cycle progression, G0/G1 arrest; type: cell-based; conditions: compared to an inhibitor that inhibits one or more PI3-kinases
Experimental: FIG. 9A-9B depict the effects of a compound of Table 1 of the present invention on cell cycle progression in HCT116 and SW620 cells as compared to various other compounds. FIG. 9A depicts the inhibiting effect of the compound at 500 nM on cell cycle progression as compared to DMSO vehicle control and as compared to 10 uM doxorubicin. FIG. 9B depicts the effect of the indicated compounds on the population of cells residing in G0/G1 phase during culture for two different cell lines.
In some embodiments, one or more compounds of the invention including those in Table 1 may cause cell cycle arrest. […] In some cases, about 35%, 40%, 50%, 55%, 60%, 65%, 70% or more of cells treated with one or more compounds of the invention may be in the G0/G1 cell cycle stage.

PI3K α = biological target: T1, PI3K α (Homo sapiens, UniProt P42336); test: PI3K α kinase inhibition assay; type: biochemical
T1 construct: purchased Upstate
T1 sequence (P42336 whole entry): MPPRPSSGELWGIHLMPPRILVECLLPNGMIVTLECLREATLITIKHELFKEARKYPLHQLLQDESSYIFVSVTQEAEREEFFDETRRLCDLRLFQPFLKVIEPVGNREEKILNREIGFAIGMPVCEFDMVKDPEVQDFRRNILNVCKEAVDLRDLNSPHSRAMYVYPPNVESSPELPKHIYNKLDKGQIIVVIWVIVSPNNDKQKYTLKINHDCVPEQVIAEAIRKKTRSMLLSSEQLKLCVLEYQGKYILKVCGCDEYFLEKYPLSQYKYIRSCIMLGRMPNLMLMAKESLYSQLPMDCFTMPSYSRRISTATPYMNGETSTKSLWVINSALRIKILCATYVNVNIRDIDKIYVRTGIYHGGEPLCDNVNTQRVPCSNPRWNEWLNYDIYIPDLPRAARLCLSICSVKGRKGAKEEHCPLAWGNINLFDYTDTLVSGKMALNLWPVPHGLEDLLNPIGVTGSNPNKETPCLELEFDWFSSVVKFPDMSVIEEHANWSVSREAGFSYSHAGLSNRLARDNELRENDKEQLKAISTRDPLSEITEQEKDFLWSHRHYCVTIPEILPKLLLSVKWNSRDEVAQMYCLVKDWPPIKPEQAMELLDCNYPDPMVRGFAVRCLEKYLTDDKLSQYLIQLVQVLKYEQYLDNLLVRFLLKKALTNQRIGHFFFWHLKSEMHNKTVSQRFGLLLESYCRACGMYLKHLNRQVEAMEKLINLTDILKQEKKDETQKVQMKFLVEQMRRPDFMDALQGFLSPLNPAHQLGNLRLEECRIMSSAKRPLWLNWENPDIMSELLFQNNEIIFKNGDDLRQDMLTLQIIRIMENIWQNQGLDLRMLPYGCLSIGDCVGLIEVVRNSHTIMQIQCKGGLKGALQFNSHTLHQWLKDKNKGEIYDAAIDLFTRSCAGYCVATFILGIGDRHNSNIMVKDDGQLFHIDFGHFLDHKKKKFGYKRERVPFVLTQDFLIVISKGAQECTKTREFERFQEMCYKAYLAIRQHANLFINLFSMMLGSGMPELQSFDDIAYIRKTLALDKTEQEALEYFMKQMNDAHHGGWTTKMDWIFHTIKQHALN
T1 sequence (P27986 whole entry partner): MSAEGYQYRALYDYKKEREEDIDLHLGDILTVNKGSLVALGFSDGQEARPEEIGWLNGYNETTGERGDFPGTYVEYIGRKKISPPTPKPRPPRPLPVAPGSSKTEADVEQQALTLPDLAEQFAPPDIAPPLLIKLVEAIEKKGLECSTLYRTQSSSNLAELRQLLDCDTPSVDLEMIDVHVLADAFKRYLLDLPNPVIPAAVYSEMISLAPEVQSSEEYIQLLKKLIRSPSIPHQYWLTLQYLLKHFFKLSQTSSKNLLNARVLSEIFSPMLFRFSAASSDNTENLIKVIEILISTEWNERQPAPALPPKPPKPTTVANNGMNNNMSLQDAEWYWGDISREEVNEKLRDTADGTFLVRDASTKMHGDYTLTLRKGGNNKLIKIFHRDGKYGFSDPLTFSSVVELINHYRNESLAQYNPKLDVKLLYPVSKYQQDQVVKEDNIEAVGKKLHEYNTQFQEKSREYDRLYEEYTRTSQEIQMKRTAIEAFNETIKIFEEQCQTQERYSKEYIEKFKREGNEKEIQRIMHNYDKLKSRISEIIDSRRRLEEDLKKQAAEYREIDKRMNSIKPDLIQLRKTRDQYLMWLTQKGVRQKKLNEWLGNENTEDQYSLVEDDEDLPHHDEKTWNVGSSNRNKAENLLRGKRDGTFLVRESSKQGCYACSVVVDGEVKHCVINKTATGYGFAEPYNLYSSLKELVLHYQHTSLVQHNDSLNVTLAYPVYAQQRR

SMILES | tumor volume of xenograft tumors (xenograft tumors) | degree of G0/G1 arrest [1] | IC50 (PI3K α) [µM]
CC(C)n1nc(-c2ccc3oc(N)nc3c2)c2c(N)ncnc21 [compound 1] | cause a reduction in tumor volume of xenograft tumors | comparable or a greater degree of G0/G1 arrest | 
COC(=O)Nc1noc2ccc(-c3nn(C(C)C)c4ncnc(N)c34)cc12 [compound 19] |  |  | > 10
COC(=O)Nc1noc2cc(-c3nn(C(C)C)c4ncnc(N)c34)ccc12 [compound 20] |  |  | < 10
